According to publication PMC8696028, “Tricarboxylate Citrate Transporter of an Oleaginous Fungus Mucor circinelloides WJ11: From Function to Structure and Role in Lipid Production” (Frontiers in Nutrition, 2021):

Molecular target: T1, Tct (tricarboxylate citrate transporter; tricarboxylate carrier) (Mucor circinelloides, UniProt S2K4S3)
T1 construct: gene HMPREF1544_06035; full-length tct (321 residues), E. coli codon-optimised, pET30a(+) NdeI/HindIII with C-terminal His tag, E. coli BL21(DE3); urea-denatured, Ni-purified, renatured, reconstituted in liposomes
T1 sequence (S2K4S3 entry or part of it): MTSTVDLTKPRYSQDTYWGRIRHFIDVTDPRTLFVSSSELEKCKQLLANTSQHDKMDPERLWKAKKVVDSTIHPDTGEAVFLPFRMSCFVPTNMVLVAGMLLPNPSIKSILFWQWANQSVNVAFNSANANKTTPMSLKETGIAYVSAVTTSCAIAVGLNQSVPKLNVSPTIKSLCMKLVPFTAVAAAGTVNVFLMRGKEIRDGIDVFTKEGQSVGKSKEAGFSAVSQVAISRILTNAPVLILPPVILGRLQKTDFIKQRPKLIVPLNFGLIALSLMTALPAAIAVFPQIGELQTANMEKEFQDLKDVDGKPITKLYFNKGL
Test: […]citrate/citrate exchange in Tct-reconstituted proteoliposomes, inhibitor-stop method
Format: biochemical
Conditions: 10 mM internal citrate, 0.01 mM external [14C]citrate, 2 min

Cc1ncc(COP(=O)(O)O)c(C=O)c1O [pyridoxal 5'-phosphate]
inhibition at 20 mM: Pyridoxal-5'-phosphate (PLP) and pHMB strongly inhibit Tct transport activity
